Reference: patent publication US20260284080A1 (priority 2025, published 2026)

Assay: physchem
Type: physicochemical
From the text: Abiraterone acetate is a white to off-white, non-hygroscopic, crystalline powder.

With `CC(=O)O[C@H]1CC[C@@]2(C)C(=CC[C@@H]3[C@@H]2CC[C@]2(C)C(c4cccnc4)=CC[C@@H]32)C1` [abiraterone acetate, (3B)-17-(3-pyridinyl) androsta-5,16-dien-3-yl acetate] as the compound, how does the pKa read?
Its pKa is 5.19.
